This is an account of results in ChEMBL document CHEMBL1134487, “Design, synthesis, and biological evaluation of analogues of the antitumor agent, 2-(4-[(7-chloro-2-quinoxalinyl)oxy]phenoxy)propionic acid (XK469)” (2001).

By T/C is commonly meant the result in the treated group divided by that in the control group, in per cent.

For experiment [1], the system named is Mus musculus. Briefly: In vivo activity tested against C3H mice bearing panc-03 murine tumor measured as body weight loss at 1085 mg/kg (po). Type of experiment: functional.
For experiment [2], the system named is Mus musculus. Put plainly: In vivo activity tested against C3H mice bearing panc-03 murine tumor measured as % treated/control calculated at 1085 mg/kg (po). Type of experiment: functional.
Experiment [3] relates to Mus musculus. Briefly: In vivo activity tested against C3H mice bearing panc-03 murine tumor measured as log Kill value was based on tumors that grew at 1085 mg/kg (po). Also noted: dose 1085 mg/kg. Type of experiment: functional, organism-based.
In experiment [4] the test system is Mus musculus. Briefly: In vivo activity tested against C3H mice bearing panc-03 murine tumor measured as activity rating at 1085 mg/kg (po). It is filed as functional.
The subject of experiment [5] is Mus musculus. Briefly: In vivo activity tested against C3H mice bearing panc-03 murine tumor, measured as cures at 1085 mg/kg (po); 3/5 cures. It is filed as functional.
The subject of experiment [6] is Mus musculus. Briefly: In vivo activity tested against C3H mice bearing panc-03 murine tumor at a dose of 330mg/kg, measured as % treated/control. It is filed as functional.
Experiment [7] has as its system Mus musculus. Put plainly: In vivo activity tested against C3H mice bearing panc-03 murine tumor at a dose of 330 mg/kg, measured as activity rating at 330 mg/kg iv dose. It is filed as functional.
Experiment [8] deals with Mus musculus. Briefly: In vivo activity tested against C3H mice bearing colon adenocarcinoma -38(colon-38) tumor measured as body weight loss at 195 mg/kg (po). It is filed as functional.
For experiment [9], the system named is Mus musculus. Put plainly: In vivo activity tested against C3H mice bearing colon adenocarcinoma -38(colon-38) tumor measured as % treated/control calculated at 195 mg/kg (po). It is filed as functional.
The test system of experiment [10] is Mus musculus. Put plainly: In vivo activity tested against C3H mice bearing mammary adenocarcinoma -16c/ADR tumor measured as body weight loss at 455 mg/kg (po). Type of experiment: functional.
Experiment [11] has as its system Mus musculus. Put plainly: In vivo activity tested against C3H mice bearing mammary adenocarcinoma -16c/ADR tumor measured as body weight loss at 582 mg/kg (po). Type of experiment: functional.
Experiment [12] relates to Mus musculus. Put plainly: In vivo activity tested against C3H mice bearing mammary adenocarcinoma -17/ADR tumor measured as body weight loss at 407.4 mg/kg (po). Type of experiment: functional.
The test system of experiment [13] is Mus musculus. Put plainly: In vivo activity tested against C3H mice bearing mammary adenocarcinoma -17/ADR tumor measured as body weight loss at 679 mg/kg (po). It is filed as functional.
In experiment [14] the test system is Mus musculus. Put plainly: In vivo activity tested against C3H mice bearing colon adenocarcinoma -38(colon-38) tumor measured as % treated/control calculated at 585 mg/kg (po). It is filed as functional.
Experiment [15] concerns Mus musculus. Put plainly: In vivo activity tested against C3H mice bearing mammary adenocarcinoma -16c/ADR tumor measured as % treated/control calculated at 455 mg/kg (po). Type of experiment: functional.
The subject of experiment [16] is Mus musculus. Put plainly: In vivo activity tested against C3H mice bearing mammary adenocarcinoma -16c/ADR tumor measured as % treated/control calculated at 582 mg/kg (po). It is filed as functional.
Experiment [17] has as its system Mus musculus. Put plainly: In vivo activity tested against C3H mice bearing mammary adenocarcinoma -17/ADR tumor measured as % treated/control calculated at 407.4 mg/kg (po). Type of experiment: functional.
The subject of experiment [18] is Mus musculus. Briefly: In vivo activity tested against C3H mice bearing mammary adenocarcinoma -17/ADR tumor measured as % treated/control calculated at 679 mg/kg (po). It is filed as functional.
In experiment [19] the test system is Mus musculus. Briefly: In vivo activity tested against C3H mice bearing mammary adenocarcinoma -17/ADR tumor measured as log Kill value was based on tumors that grew at 407.4 mg/kg (po). It is filed as functional, organism-based. Also noted: dose 407.4 mg/kg.
In experiment [20] the test system is Mus musculus. Put plainly: In vivo activity tested against C3H mice bearing mammary adenocarcinoma -17/ADR tumor measured as log Kill value was based on tumors that grew at 679 mg/kg (po). Type of experiment: functional, organism-based. Details: dose 679 mg/kg.
The subject of experiment [21] is Mus musculus. Briefly: In vivo activity tested against C3H mice bearing mammary adenocarcinoma -16c/ADR tumor measured as log Kill value was based on tumors that grew at 455 mg/kg (po). Also noted: dose 455 mg/kg. Type of experiment: functional, organism-based.
In experiment [22] the test system is Mus musculus. Put plainly: In vivo activity tested against C3H mice bearing mammary adenocarcinoma -16c/ADR tumor measured as log Kill value was based on tumors that grew at 582 mg/kg (po). It is filed as functional, organism-based. Also noted: dose 582 mg/kg.
The test system of experiment [23] is Mus musculus. Put plainly: In vivo activity tested against C3H mice bearing colon adenocarcinoma -38(colon-38) tumor measured as log Kill value was based on tumors that grew at 195 mg/kg (po). It is filed as functional, organism-based. Also noted: dose 195 mg/kg.
In experiment [24] the test system is Mus musculus. Put plainly: In vivo activity tested against C3H mice bearing colon adenocarcinoma -38(colon-38) tumor measured as log Kill value was based on tumors that grew at 585 mg/kg (po). It is filed as functional, organism-based. Details: dose 585 mg/kg.
In experiment [25] the test system is Mus musculus. Put plainly: In vivo activity tested against C3H mice bearing colon adenocarcinoma -38(colon-38) tumor measured as body weight loss at 585 mg/kg (po). It is filed as functional.
Experiment [26] deals with Mus musculus. Put plainly: In vivo activity tested against C3H mice bearing panc-03 murine tumor measured as % treated/control calculated at 561 mg/kg (po). It is filed as functional.
Experiment [27] deals with Mus musculus. Put plainly: In vivo activity tested against C3H mice bearing panc-03 murine tumor measured as body weight loss at 1010 mg/kg (po). It is filed as functional.
The subject of experiment [28] is Mus musculus. Briefly: In vivo activity tested against C3H mice bearing panc-03 murine tumor measured as % treated/control calculated at 1010 mg/kg (po). Type of experiment: functional.
In experiment [29] the test system is Mus musculus. Put plainly: In vivo activity tested against C3H mice bearing panc-03 murine tumor measured as body weight loss at 561 mg/kg (po). It is filed as functional.
The subject of experiment [30] is Mus musculus. Briefly: In vivo activity tested against C3H mice bearing panc-03 murine tumor measured as log Kill value was based on tumors that grew at 1010 mg/kg (po). It is filed as functional, organism-based. Also noted: dose 1010 mg/kg.
In experiment [31] the test system is Mus musculus. Put plainly: In vivo activity tested against C3H mice bearing panc-03 murine tumor measured as log Kill value was based on tumors that grew at 561 mg/kg (po); None. Type of experiment: functional, organism-based. Also noted: dose 561 mg/kg.
Experiment [32] has as its system Mus musculus. Briefly: In vivo activity tested against C3H mice bearing panc-03 murine tumor measured as activity rating at 561 mg/kg (po). It is filed as functional.
In experiment [33] the test system is Mus musculus. Put plainly: In vivo activity tested against C3H mice bearing mammary adenocarcinoma -17/ADR tumor measured as body weight loss at 1250 mg/kg (po). It is filed as functional.
Experiment [34] concerns Mus musculus. Briefly: In vivo activity tested against C3H mice bearing mammary adenocarcinoma -17/ADR tumor measured as body weight loss at 750 mg/kg (po). Type of experiment: functional.
The test system of experiment [35] is Mus musculus. Put plainly: In vivo activity tested against C3H mice bearing mammary adenocarcinoma -17/ADR tumor measured as % treated/control calculated at 1250 mg/kg (po). It is filed as functional.
Experiment [36] has as its system Mus musculus. Put plainly: In vivo activity tested against C3H mice bearing mammary adenocarcinoma -17/ADR tumor measured as % treated/control calculated at 750 mg/kg (po). Type of experiment: functional.
Experiment [37] has as its system Mus musculus. Put plainly: In vivo activity tested against C3H mice bearing mammary adenocarcinoma -17/ADR tumor measured as log Kill value was based on tumors that grew at 750 mg/kg (po). Type of experiment: functional, organism-based. Also noted: dose 750 mg/kg.
The subject of experiment [38] is Mus musculus. Put plainly: In vivo activity tested against C3H mice bearing mammary adenocarcinoma -17/ADR tumor measured as log Kill value was based on tumors that grew at 1250 mg/kg (po). It is filed as functional, organism-based. Details: dose 1250 mg/kg.

The source made the active and inactive calls. The rule behind the calls is not given here.

For the compound `CC(Oc1ccc(Oc2cnc3ccc(F)cc3n2)cc1)C(=O)O` (stereo not drawn), in experiment [1], the Body weight loss is -13%. Further, the T/C in experiment [2] is 0%. Besides, the Log kill in experiment [3] stood at 3.7. The Activity rating in [4] was over 2.8. The same compound gave a Cures in experiment [5] of 3.

`CC(Nc1ccc(Oc2cnc3ccc(Cl)cc3n2)cc1)C(=O)O` (stereo not drawn) registered a T/C in experiment [6] of 100%. Also, the Activity rating in experiment [7] is on record as over 2.8.

In the case of `COc1ccc2ncc(Oc3ccc(OC(C)C(=O)O)cc3)nc2c1` (stereo not drawn), the Body weight loss is 0% in experiment [8]; -1.2% in experiment [10]; -13.6% in experiment [11]; 0% in [12]; -4.6% in [13]; 0% in experiment [25]. The T/C in experiment [9] is listed as 90%; in [14] it was 23%; in experiment [15] it was 8%; in experiment [16] it was 0%; in experiment [17], 6.4%; in experiment [18], 4.6%. Moreover, the Log kill was determined as 1.7 in experiment [19]; 3 in experiment [20]; 2.1 in [21]; 2.7 in experiment [22]; 0.12 in [23]; 1.73 in experiment [24].

As to `CC(Oc1ccc(Oc2cnc3c(Cl)cccc3n2)cc1)C(=O)O` (stereo not drawn), the T/C in experiment [26] is listed as over 100%; in [28], 59%. The Body weight loss is -2% in experiment [27] and 2% in [29]. In experiment [30], this compound showed a Log kill of 0.27. Moreover, in [31], the Log kill entry is “inactive”. The compound also had an Activity rating in [32] of under 0.7.

Consider `Cc1ccc2ncc(Oc3ccc(OC(C)C(=O)O)cc3)nc2c1` (stereo not drawn), for which the results for the Body weight loss in experiment [33] and in experiment [34] were 7.1% and 4.3%, respectively. The T/C in experiment [35] is reported as 21%; in experiment [36], 47%. Also, the Log kill was 0.38 in [37] and 0.63 in experiment [38].
